Results as given in PubChem BioAssay (NCI).
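Five compound concentrations were applied to cells in 96-well plates for 48 hours; endpoints were derived by simple linear interpolation of the resulting dose-response curve. GI50: concentration for 50% inhibition of growth. At the TGI there is no net growth.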

Legend:
Assay in all cases: growth of human tumour cells (NCI), 48 h
BT-549 breast = test system: BT-549 breast
HCC-2998 colon = test system: HCC-2998 colon
HT29 colon = test system: HT29 colon
K-562 leukemia = test system: K-562 leukemia
OVCAR-8 ovarian = test system: OVCAR-8 ovarian
RPMI-8226 leukemia = test system: RPMI-8226 leukemia
SK-MEL-28 melanoma = test system: SK-MEL-28 melanoma
SK-OV-3 ovarian = test system: SK-OV-3 ovarian
SN12C renal = test system: SN12C renal
SNB-19 CNS = test system: SNB-19 CNS

SMILES | GI50 (BT-549 breast) [µM] | TGI (BT-549 breast) [µM] | GI50 (HCC-2998 colon) [µM] | TGI (HCC-2998 colon) [µM] | GI50 (HT29 colon) [µM] | TGI (HT29 colon) [µM] | GI50 (K-562 leukemia) [µM] | TGI (K-562 leukemia) [µM] | GI50 (OVCAR-8 ovarian) [µM] | TGI (OVCAR-8 ovarian) [µM] | GI50 (RPMI-8226 leukemia) [µM] | TGI (RPMI-8226 leukemia) [µM] | GI50 (SK-MEL-28 melanoma) [µM] | TGI (SK-MEL-28 melanoma) [µM] | GI50 (SK-OV-3 ovarian) [µM] | TGI (SK-OV-3 ovarian) [µM] | GI50 (SN12C renal) [µM] | TGI (SN12C renal) [µM] | GI50 (SNB-19 CNS) [µM] | TGI (SNB-19 CNS) [µM]
COc1ccc(/C=C2\COc3ccc(O)c(O)c3C2=O)c(OC)c1OC | 4.03 | 12 | 2.18 | 4.48 | 3.1 | 13.8 | 2.11 | > 100 | 3.16 | > 100 | 0.457 | 2.95 | 2.63 | 7.37 | 3.24 | > 100 | 2.55 | 8.95 | 3.69 | 15.7
CC(C)[C@@](O)(c1ccc2cc(OC(F)F)c(OC(F)F)cc2c1)c1cn[nH]n1 | 15.2 | 29.5 | 18.2 | 35.8 | 18.6 | 41.6 | 19.3 | 55.3 | 21.9 | 53.6 | 17.3 | 61.4 | 17.1 | 33.9 | 16.2 | 38.1 | 17.1 | 35.2 | 20.8 | 51.2
Cn1cc(C2=C(c3cn(-c4ccccc4)c4ccccc34)C(=O)NC2=O)c2ccccc21 | 16.2 | > 25 | 24.4 | > 25 | 9.56 | > 25 | 8.75 | > 25 | 19.5 | > 25 | 12.1 | > 25 | 22.3 | > 25 | > 25 | > 25 | 15.8 | > 25 | > 25 | > 25
O=C(C=P(c1ccccc1)(c1ccccc1)c1ccccc1)CCl | 1.89 | 7.14 | 1.84 | 3.7 | 1.13 | 2.8 | 0.844 | 9.12 | 0.918 | 3.8 | 0.965 | 4.45 | 1.54 | 3.55 | 4.67 | 16.1 | 1.46 | 4.53 | 3.55 | 15.1
O=C1CC(c2ccccc2)Cc2nc3ccc(Br)cc3cc21 (stereo not given) | 0.589 | 15.9 | 1.57 | 16.8 | 0.244 | > 100 | 0.162 | > 100 | 0.4 | > 100 | 2.92 | > 100 | 1.34 | > 100 | 0.694 | > 100 | 0.577 | > 100 | 0.495 | > 100
NC(=S)N/N=C1\c2ccccc2-c2c(F)c(F)c(F)c(F)c21 | 4.92 | 10.7 | 3.11 | 9.37 | 2.2 | 5.07 | 2.09 | 6.61 | 1.84 | 3.68 | 3.92 | > 55.9 | 2.99 | 8.87 | 14.1 | 36.5 | 7.31 | 20 | 11.4 | 29.2
Cn1c(=O)nc2n(-c3ccc(Cl)cc3)c3cc(Cl)ccc3nc-2c1=O |  | 7.17 |  | 14.1 |  | 9.57 |  | 5.41 |  | 6.2 |  | 22.8 |  | 7.19 |  | 34.6 |  | 13.9 |  | 27.9
Oc1ccc2c3c1OC1c4[nH]ncc4C[C@H]4[C@@H](C2)N(CC2CC2)CC[C@]314 (stereo not given in full) |  | > 100 |  | > 100 |  | > 100 |  | > 100 |  | > 100 |  | > 100 |  | > 100 |  | > 100 |  | > 100 |  | > 100
CC(C)(C)CC(C)(C)c1ccc(O)c(Cc2ccc(Cl)cc2Cl)c1 | 2.03 | 3.52 | 1.79 | 3.25 | 1.67 | 3.03 | 2.09 | 3.83 | 1.61 | 2.96 | 1.24 | 3.66 | 1.61 | 2.96 | 1.5 | 2.82 | 1.47 | 2.79 | 1.82 | 3.21
O=c1cnnc(N/N=C/c2ccccc2O)[nH]1 | 6.36 | > 100 | 3.02 | > 100 | 0.646 | > 100 | 0.163 | > 100 | 1.81 | > 100 | 1.23 | > 72.9 | 4.54 | 53.2 | 3.6 | > 100 | 4.21 | > 100 | 6.41 | > 100
